The compounds below were run against T1, human Plk4 kinase domain (aa 2-275) (Homo sapiens, UniProt O00444) (assay: Plk4 kinase assay (ADP-Glo)). Settings: Table 1.
T1 construct: purified 6×His-tagged human Plk4 kinase domain (aa 2-275); 6xHis; made in house; host or cells: E. coli
T1 sequence (O00444 2-275): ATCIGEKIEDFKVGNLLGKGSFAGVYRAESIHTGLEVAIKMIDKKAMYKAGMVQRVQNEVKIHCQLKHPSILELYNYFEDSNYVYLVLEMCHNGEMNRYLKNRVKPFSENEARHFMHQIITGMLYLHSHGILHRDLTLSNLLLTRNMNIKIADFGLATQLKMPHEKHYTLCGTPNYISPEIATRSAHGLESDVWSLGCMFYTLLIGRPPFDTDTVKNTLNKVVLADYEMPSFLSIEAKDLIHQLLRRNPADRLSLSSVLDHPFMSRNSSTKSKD
Format: biochemical
How it was run: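 Enzyme at 2.5-10 nM final, pH 8.0, reacted 4-16 hours at 25° C; ADP generation read by ADP-Glo luminescence. Ki derived from IC50 by Cheng-Prusoff or, for tight binders, Copeland formalism.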

Row | Compound | IC50
1 | CCCOc1c(Nc2cc(C)[nH]n2)nc(Sc2ccc(NC(=O)C3CC3)cc2)nc1N(CC)CC | 100 to 1000 nM
2 | COc1c(Nc2cc(C)[nH]n2)nc(Sc2ccc(S(=O)(=O)Cc3c(F)c(F)cc(Cl)c3F)cc2F)nc1N1CCC(CCN(C)C)CC1 | < 1000 nM
3 | COc1c(Nc2cc(C)[nH]n2)nc(Sc2ccc(S(=O)(=O)C(C)(C)c3cccc([N+](=O)[O-])c3F)cc2F)nc1N1CCC(OC)C1 (stereo not shown) | < 1000 nM
4 | COc1c(Nc2cc(C)[nH]n2)nc(Sc2ccc(S(=O)(=O)C(C)(C)c3cccc([N+](=O)[O-])c3F)cc2F)nc1N1CCN(C(=O)CN(C)C)CC1 | < 1000 nM
5 | COc1c(Nc2cc(C)[nH]n2)nc(Sc2ccc(S(=O)(=O)Cc3c(F)c(F)c(F)c(F)c3F)cc2F)nc1N1CCOCC1 | < 1000 nM
6 | COc1c(Nc2cc(C)[nH]n2)nc(Sc2ccc(S(=O)(=O)C(C)(C)c3cccc([N+](=O)[O-])c3F)cc2F)nc1N1CCC(NC(C)=O)CC1 | < 1000 nM
7 | COc1c(Nc2cc(C)[nH]n2)nc(Sc2ccc(S(=O)(=O)C(C)(C)c3cccc([N+](=O)[O-])c3F)cc2F)nc1N1CC[C@H](NC(C)=O)C1 | < 1000 nM
8 | COc1c(Nc2cc(C)[nH]n2)nc(Sc2ccc(S(=O)(=O)C(C)(C)c3cccc([N+](=O)[O-])c3F)cc2F)nc1N1CCN(CC(=O)N(C)C)CC1 | < 1000 nM
9 | COc1c(Nc2cc(C)[nH]n2)nc(Sc2ccc(S(=O)(=O)C(C)(C)c3cccc([N+](=O)[O-])c3F)cc2F)nc1N1CC[C@H](N(C)C)C1 | < 1000 nM
10 | COc1c(Nc2cc(C)[nH]n2)nc(Sc2ccc(S(=O)(=O)C(C)(C)c3cccc([N+](=O)[O-])c3F)cc2F)nc1N1CC[C@@H](N(C)C)C1 | < 1000 nM
11 | COc1c(Nc2cc(C)[nH]n2)nc(Sc2ccc(S(=O)(=O)C(C)(C)c3c(F)c(F)cc(F)c3F)cc2F)nc1N1CCC(NC(C)=O)CC1 | < 1000 nM
12 | COc1c(Nc2cc(C)[nH]n2)nc(Sc2ccc(S(=O)(=O)C(C)(C)c3c(F)c(F)cc(F)c3F)cc2F)nc1N1CC[C@H](N(C)C)C1 | < 1000 nM
13 | COc1c(Nc2cc(C)[nH]n2)nc(Sc2ccc(S(=O)(=O)C(C)(C)c3c(F)c(F)cc(F)c3F)cc2F)nc1N1CCC(CC(=O)N(C)C)CC1 | < 1000 nM
14 | COc1c(Nc2cc(C)[nH]n2)nc(Sc2ccc(S(=O)(=O)C(C)(C)c3c(F)c(F)cc(F)c3F)cc2F)nc1N1CC[C@@H](N(C)C)C1 | < 1000 nM
15 | COc1c(Nc2cc(C)[nH]n2)nc(Sc2ccc(S(=O)(=O)C(C)(C)c3c(F)c(F)c(F)c(F)c3F)cc2F)nc1N1CCC(N(C)C)CC1 | < 1000 nM
16 | COc1c(Nc2cc(C)[nH]n2)nc(Sc2ccc(S(=O)(=O)C(C)(C)c3c(F)c(F)c(F)c(F)c3F)cc2F)nc1N1CCC(CCN(C)C)CC1 | < 1000 nM
17 | COc1c(Nc2cc(C)[nH]n2)nc(Sc2ccc(S(=O)(=O)C(C)(C)c3c(F)c(F)cc(F)c3F)cc2F)nc1N1CCC(NC(C)=O)C1 (stereo not shown) | < 1000 nM

Row | Compound | IC50
18 | COc1c(Nc2cc(C)[nH]n2)nc(Sc2ccc(S(=O)(=O)C(C)(C)c3c(F)c(F)cc(F)c3F)cc2F)nc1N1CCC(OC)CC1 | < 1000 nM
19 | COc1ccc(CS(=O)(=O)c2ccc(Sc3nc(Nc4cc(C)[nH]n4)c(OC)c(N4CCOCC4)n3)c(F)c2)cc1 | < 1000 nM
20 | CNC1CCN(c2nc(Sc3ccc(S(=O)(=O)C(C)(C)c4cccc([N+](=O)[O-])c4F)cc3F)nc(Nc3cc(C)[nH]n3)c2OC)CC1 | < 1000 nM
21 | COc1c(Nc2cc(C)[nH]n2)nc(Sc2ccc(S(=O)(=O)C(C)(C)c3cccnc3)cc2)nc1N1CCN(CCN(C)C)CC1 | < 1000 nM
22 | COc1c(Nc2cc(C)[nH]n2)nc(Sc2ccc(S(=O)(=O)Cc3cccc([N+](=O)[O-])c3F)cc2F)nc1N1CCN(C)CC1 | < 1000 nM
23 | COc1c(Nc2cc(C)[nH]n2)nc(Sc2ccc(S(=O)(=O)Cc3ccccc3)cc2)nc1N1CCN(Cc2ccncc2)CC1 | < 1000 nM
24 | COc1c(Nc2cc(C)[nH]n2)nc(Sc2ccc(S(=O)(=O)Cc3cccc(C#N)c3)cc2)nc1N1CCN(CCN(C)C)CC1 | < 1000 nM
25 | COc1ccccc1CS(=O)(=O)c1ccc(Sc2nc(Nc3cc(C)[nH]n3)c(OC)c(N3CCN(CCN(C)C)CC3)n2)cc1 | < 1000 nM
26 | COc1c(Nc2cc(C)[nH]n2)nc(Sc2ccc(S(=O)(=O)Cc3cccc(C)c3)cc2)nc1N1CCN(CCN(C)C)CC1 | < 1000 nM
27 | COc1cccc(CS(=O)(=O)c2ccc(Sc3nc(Nc4cc(C)[nH]n4)c(OC)c(N4CCN(CCN(C)C)CC4)n3)cc2)c1 | < 1000 nM
28 | CCOc1c(Nc2cc(C)[nH]n2)nc(Sc2ccc(NC(=O)C3CC3)cc2)nc1N1CCC(O)CC1 | < 1000 nM
29 | COc1c(Nc2cc(C)[nH]n2)nc(Sc2ccc(N)cc2)nc1N1CCN(CCN(C)C)CC1 | 100 to 1000 nM
30 | COc1c(Nc2cc(C)[nH]n2)nc(Sc2ccccc2)nc1N1CCN(CCN(C)C)CC1 | 100 to 1000 nM
31 | COc1c(Nc2cc(C)[nH]n2)nc(SC)nc1N1CCN(CCN(C)C)CC1 | 100 to 1000 nM
32 | CC(=O)Nc1ccc(Sc2nc(Nc3cc(C)[nH]n3)c(C)c(N3CCC(O)CC3C)n2)cc1 (stereo not shown) | < 1000 nM
33 | COc1c(Nc2cc(C)[nH]n2)nc(Sc2ccc(NC(C)=O)cc2)nc1N1CCN(CCN2CCOCC2)CC1 | < 1000 nM
34 | CC(=O)Nc1ccc(Sc2nc(Nc3cc(C)[nH]n3)c(C)c(N3CCC(OCCN(C)C)CC3)n2)cc1 | < 1000 nM

More lines, now with the values ahead:

Row | IC50 | Compound
35 | < 1000 nM | Cc1cc(Nc2nc(Sc3ccc(NC(=O)C4CC4)cc3)nc(N3CCN(C)CC3)c2C)n[nH]1
36 | < 1000 nM | CNc1nc(Sc2ccc(NC(=O)C3CC3)cc2)nc(Nc2cc(C)[nH]n2)c1OC
37 | < 1000 nM | CCNc1nc(Sc2ccc(NC(=O)C3CC3)cc2)nc(Nc2cc(C)[nH]n2)c1OC
38 | < 1000 nM | CC(=O)Nc1ccc(Sc2nc3c(c(Nc4cc(C)[nH]n4)n2)C(C)CC3)cc1 (stereo not shown)
39 | < 1000 nM | Cc1cc(Nc2nc(Sc3ccc(NC(=O)C4CCCC4)cc3)nc3c2C(C)CC3)n[nH]1 (stereo not shown)
40 | < 1000 nM | COc1c(Nc2cc(C)[nH]n2)nc(Sc2ccc(NC(=O)C3CC3)cc2)nc1N1CCN(C(C)C)CC1
41 | < 1000 nM | COc1c(Nc2cc(C)[nH]n2)nc(Sc2ccc(NC(=O)C3CC3)cc2)nc1N1CCN(C(C)=O)CC1
42 | < 1000 nM | CCN1CCN(c2nc(Sc3ccc(NC(=O)C4CC4)cc3)nc(Nc3cc(C)[nH]n3)c2OC)CC1
43 | < 1000 nM | COCCN1CCN(c2nc(Sc3ccc(NC(=O)C4CC4)cc3)nc(Nc3cc(C)[nH]n3)c2OC)CC1
44 | < 1000 nM | COc1c(Nc2cc(C)[nH]n2)nc(Sc2ccc(NC(=O)C3CC3)cc2)nc1N1CCN(CCN(C)C)CC1
45 | < 1000 nM | Cc1cc(Nc2nc(Sc3ccc(NC(=O)C4CC4)cc3)nc(N(C)C(C)C)c2C)n[nH]1
46 | < 1000 nM | COCCNc1nc(Sc2ccc(NC(=O)C3CC3)cc2)nc(Nc2cc(C)[nH]n2)c1C
47 | < 1000 nM | COc1c(Nc2cc(C)[nH]n2)nc(Sc2ccc(S(=O)(=O)Nc3cccc([N+](=O)[O-])c3)cc2F)nc1N1CCOCC1
48 | < 1000 nM | COc1c(Nc2cc(C)[nH]n2)nc(Sc2ccc(S(=O)(=O)Cc3cccc([N+](=O)[O-])c3F)cc2F)nc1N1CCCC[C@@H]1CO
49 | < 1000 nM | COc1c(Nc2cc(C)[nH]n2)nc(Sc2ccc(S(=O)(=O)Cc3cccc([N+](=O)[O-])c3F)cc2F)nc1N1CCC(CCN(C)C)CC1
50 | < 1000 nM | COc1c(Nc2cc(C)[nH]n2)nc(Sc2ccc(NC(=O)Cc3cccc([N+](=O)[O-])c3F)cc2F)nc1N1CCOCC1
51 | < 1000 nM | COc1c(Nc2cc(C)[nH]n2)nc(Sc2ccc(S(=O)(=O)C(F)c3cccc([N+](=O)[O-])c3F)cc2F)nc1N1CCC(CCN(C)C)CC1 (stereo not shown)

Row | IC50 | Compound
52 | < 1000 nM | COc1c(Nc2cc(C)[nH]n2)nc(Sc2ccc(S(=O)(=O)C(C)(C)c3cccc([N+](=O)[O-])c3F)cc2F)nc1N1CCCCC1
53 | < 1000 nM | COc1c(Nc2cc(C)[nH]n2)nc(Sc2ccc(S(=O)(=O)C(C)(C)c3cccc([N+](=O)[O-])c3F)cc2F)nc1N1CCN(CCN(C)C)CC1
54 | < 1000 nM | COc1c(Nc2cc(C)[nH]n2)nc(Sc2ccc(S(=O)(=O)C(F)c3cccc([N+](=O)[O-])c3F)cc2F)nc1N1CCOC[C@@H]1CO (stereo partly shown)
55 | < 1000 nM | COc1c(Nc2cc(C)[nH]n2)nc(Sc2ccc(S(=O)(=O)C(F)c3c(F)c(F)cc(F)c3F)cc2F)nc1N1CCOCC1 (stereo not shown)
56 | < 1000 nM | COc1c(Nc2cc(C)[nH]n2)nc(Sc2ccc(S(=O)(=O)C(C)(C)c3c(F)c(F)cc(F)c3F)cc2F)nc1N1CCN(CCN(C)C)CC1
57 | < 1000 nM | COc1c(Nc2cc(C)[nH]n2)nc(Sc2ccc(S(=O)(=O)C(C)(C)c3cccc([N+](=O)[O-])c3F)cc2F)nc1N1CCC(CCN(C)C)CC1
58 | < 1000 nM | COc1c(Nc2cc(C)[nH]n2)nc(Sc2ccc(S(=O)(=O)C(C)(C)c3cccc([N+](=O)[O-])c3F)cc2F)nc1N1CCOC[C@@H]1CO
59 | < 1000 nM | COc1c(Nc2cc(C)[nH]n2)nc(Sc2ccc(S(=O)(=O)C(C)(C)c3cccc(Cl)c3F)cc2F)nc1N1CCOCC1
60 | < 1000 nM | COc1c(Nc2cc(C)[nH]n2)nc(Sc2ccc(S(=O)(=O)C(C)(C)c3cccc(Cl)c3F)cc2F)nc1N1CCN(CCN(C)C)CC1
61 | < 1000 nM | COc1c(Nc2cc(C)[nH]n2)nc(Sc2ccc(S(=O)(=O)C(C)(C)c3cc(F)cc(Cl)c3F)cc2F)nc1N1CCOCC1
62 | < 1000 nM | COc1c(Nc2cc(C)[nH]n2)nc(Sc2ccc(S(=O)(=O)C(C)(C)c3cccc([N+](=O)[O-])c3F)cc2F)nc1N1CCNCC1
63 | < 1000 nM | COc1c(Nc2cc(C)[nH]n2)nc(Sc2ccc(S(=O)(=O)C(C)(C)c3cccc(Cl)c3F)cc2F)nc1N1CCC(CCN(C)C)CC1
64 | < 1000 nM | COc1c(Nc2cc(C)[nH]n2)nc(Sc2ccc(S(=O)(=O)C(C)(C)c3cccc([N+](=O)[O-])c3F)cc2F)nc1N1CCC(CC(=O)N(C)C)CC1
65 | < 1000 nM | COc1c(Nc2cc(C)[nH]n2)nc(Sc2ccc(S(=O)(=O)C(C)(C)c3c(F)c(F)cc(F)c3F)cc2F)nc1N1CCC(N(C)C)CC1
66 | < 1000 nM | COc1c(Nc2cc(C)[nH]n2)nc(Sc2ccc(S(=O)(=O)C(C)(C)c3c(F)c(F)cc(Cl)c3F)cc2F)nc1N1CCOCC1
67 | < 1000 nM | COc1c(Nc2cc(C)[nH]n2)nc(Sc2ccc(S(=O)(=O)Cc3c(F)c(F)cc(Cl)c3F)cc2F)nc1N1CCN(CCN(C)C)CC1

— patent US10752612B2, “PLK4 inhibitors” (LUDWIG INSTITUTE FOR CANCER RESEARCH LTD, priority 2015, dated 2020)
